Where two headings read alike, the source gives them in different places.
Assays:
[1] = system: first-calf crossbred beef heifers; test: Induction of parturition with relaxin in combination with dexamethasone or cloprostenol; format: in vivo, cattle; details: for Interval between treatment and calving: mean ± SE
Source text: Crossbred beef heifers were bred by artificial insemination and assigned randomly to treatment groups on day 268 of pregnancy. Blood samples were collected daily for radioimmunoassay of relaxin, progesterone, estrone and 17β-estradiol. Daily measures were obtained of pelvic dimensions and cervical dilation during the prepartum and postpartum periods. On day 272, heifers were given relaxin alone, or in combination with a prostaglandin (e.g., cloprostenol) or a glucocorticoid (e.g., dexamethasone).
On day 272, 10 days before expected parturition, dexamethasone (20 mg) was administered intramuscularly (im) to 30 first-calf crossbred beef heifers. Relaxin (3,000 Units) was administered either at the same time or 24 h later either im or infused into the cervical os. The relaxin was dissolved in phosphate buffer saline (PBS) for im injection and in PBS plus a sterile gel for infusion in the cervical os. Controls received the dexamethasone im plus either 1 ml PBS im or 1 ml PBS-gel vehicle infused into the cervical os. There were 5 heifers assigned randomly to each treatment group.
On day 272, cloprostenol (500 μg) was administered im to 30 first-calf crossbred beef heifers. Relaxin (3,000 Units) wad administered either at the same time or 24 h later either im or infused into the cervical os. The relaxin was dissolved in PBS for injection and in PBS plus sterile gel for infusion into the cervical os. Controls received the cloprostenol im plus either 1 ml PBS im or 1 ml PBS-gel vehicle infused into the cervical os. There were 5 heifers assigned randomly to each treatment group.

[2] = system: first- and second-calf beef heifers; test: Induction of parturition with cloprostenol and relaxin or PBS im; format: in vivo, cattle; details: for Animals with placenta retained ≥24 h / Ease of calving: day 272; for Interval between treatment and calving: day 272, mean ± SE
Experimental: The effect of cloprostenol and relaxin or PBS given im on induction or parturition was determined in 16 first-calf and 25 second-calf beef heifers. The 41 heifers were given cloprostenol im plus relaxin or PBS im on day 272 of pregnancy.

primiparous beef heifers [3] = test: Relaxin effect on pelvic area and cervical dilatation in beef heifers; format: in vivo, cattle; details: for cervical dilatation increase: within 24 h after administration
Experimental: (§1) Beginning on day 270 of gestation, the animals were assigned randomly to one of three treatment groups; gel vehicle-treated controls, Number (N)=16; single relaxin-treated heifers, N=14; and double relaxin-treated heifers, N=17. A daily blood sample (10 ml) was obtained from a jugular vein via a hypodermic needle (16 gauge, 3.8-cm length). The blood was divided equally into two culture tubes containing 0.1 ml of heparinized saline (10 U/ml), maintained on ice, and centrifuged (2,000×g; 4° C.); plasma was decanted into two culture tubes, frozen, and stored at -20° C. for radioimmunoassay of progesterone, estrone (E1), and 17β-estradiol (17β-E2. Pelvic and cervical measurements were obtained immediately after the blood collection except on the day of treatment and postcalving, when these measurements were obtained at 12-hour intervals for 60 hours. Relaxin (1 mg, 3,000 U/mg) was infused 4 cm into the cervical os by a sterile insemination pipette on day 278.
Relaxin was extracted from ovaries of pregnant pigs and purified according to procedures described previously. See Schwabe et al., Rec. Prog. Horm. Res. (1978) 34:123. […]
Dilatation of the cervix was measured intravaginally by using a specially designed stainless-steel probe. […] The tips of the rods were expanded by rotating the conical swivel to a uniform resistance against the cervical wall, then withdrawn, and the separation of the rods was measured.
The area of the pelvic canal was calculated from determination of height and width by using a pelvimeter (Lane Manufacturing, Inc., Denver, Colo.) providing internal landmarks. Pelvic height was determined by measuring the linear distance from the midpoint of the dorsal surface of the symphysis pubis to the ventral surface of the prominent junction of the third and fourth sacral segments. Pelvic widths were determined by measuring the greatest linear distance between depression points in the shaft of the ilia at right angles to the vertical measurements. […]

primiparous beef heifers [4] = test: Relaxin-induced parturition in beef heifers, intracervical infusion on day 278; format: in vivo, cattle; details: for Day of calving: day of gestation, mean ± SE
Source text: Forty-seven crossbred beef heifers approaching their first calving were used in this study. All heifers were bred by artificial insemination at estrus (day 0); pregnancy lasts approximately 283 days. Heifers calved at an average age of 25^± 1 months (± standard error, SE). Heifers were maintained under pasture conditions during the spring, summer and fall throughout gestation. Mixed silage (6.8 kg/animal/day) supplemented the hay fed during the winter. During the month before calving, corn (2/3 kg/animal/day) and mixed silage (9.0 kg/animal/day) were fed in addition to the ad libitum supply of hay.
as §1
Relaxin was extracted from ovaries of pregnant pigs and purified according to procedures described previously. See Schwabe et al., Rec. Prog. Horm. Res. (1978) 34:123. Purified porcine relaxin (3,000 U/mg) was suspended in 1 ml of vehicle prepared by mixing 0.01 molar phosphate buffer saline (M PBS), pH 7.0, and sterile gel (1 ml volume/volume "KY-4", a surgical lubricating jelly, Johnson and Johnson, Inc., New Brunswick, N.J.). Relaxin or gel vehicle was infused by means of a sterile insemination pipette after the cervical probe was withdrawn. A gloved hand was maintained in the reproductive tract of the heifer to guide the pipette through the cervical sphincter. Relaxin or the gel vehicle then was introduced and deposited 4 cm into the cervix.

cows = details: cited from earlier work
[5] = system: estrogen-primed immature Swiss-Webster mice; details: unit defined by interpubic ligament formation vs WL1000 standard; cited from earlier work
[6] = first-calf heifers treated day 272
[7] = first-calf heifers treated day 272, relaxin 3,000 Units, dexamethasone 20 mg or cloprostenol 500 μg
[8] = overall: relaxin with Dex or Clo vs Dex or Clo plus PBS
[9] = relaxin twice (2 × 3,000 U, 12 h apart)

O=C(O)CCC/C=C\CC1C(O)CC(O)C1/C=C/C(O)COc1cccc(Cl)c1 (stereo not shown) [PBS & Clo, cloprostenol]
Animals with placenta retained ≥24 h [1, 6]: 80%
Ease of calving [1, 6]: 40%
Interval between treatment and calving [1, 7]: 54 ± 3.4 h
Interval between treatment and calving ([1]; first-calf heifers treated day 272, relaxin 3,000 Units, dexamethasone 20 mg or cloprostenol 500 μg, listed as cloprostenol plus PBS): 54 h
Animals with placenta retained ≥24 h ([2]; 1st & 2nd calf heifers): 93%
Ease of calving ([2]; 1st & 2nd calf heifers): 63%
Interval between treatment and calving ([2]; 1st & 2nd calf heifers): 45 ± 6 h
Animals with placenta retained ≥24 h ([2]; 1st calf heifers): 80%
Ease of calving ([2]; 1st calf heifers): 40%
Interval between treatment and calving ([2]; 1st calf heifers): 46 ± 5 h
Animals with placenta retained ≥24 h ([2]; 2nd calf heifers): 100%
Ease of calving ([2]; 2nd calf heifers): 75%
Interval between treatment and calving ([2]; 2nd calf heifers): 44 ± 7 h

C[C@@H]1C[C@H]2[C@@H]3CCC4=CC(=O)C=C[C@]4(C)[C@@]3(F)[C@@H](O)C[C@]2(C)[C@@]1(O)C(=O)CO [PBS + Dex, dexamethasone]
Animals with placenta retained ≥24 h [1, 6]: 70%
Ease of calving [1, 6]: 30%
Interval between treatment and calving [1, 7]: 53 ± 2.6 h
Interval between treatment and calving ([1]; first-calf heifers treated day 272, relaxin 3,000 Units, dexamethasone 20 mg or cloprostenol 500 μg, listed as dexamethasone plus PBS): 53 h

relaxin
Animals with placenta retained ≥24 h [1, 8]: 23%
Ease of calving [1, 8]: 62%
Interval between treatment and calving ([1]; overall: relaxin with Dex or Clo vs Dex or Clo plus PBS, 60 first-calf heifers): 34 ± 2.8 h
Interval between treatment and calving ([1]; overall: relaxin with Dex or Clo vs Dex or Clo plus PBS, 60 first-calf heifers, listed as relaxin): 34 h
pelvic area (primiparous beef heifers [3]; 12 h after treatment, all relaxin-treated heifers, P<0.05): marked increases
cervical dilatation increase (primiparous beef heifers [3]; relaxin once): 526%
cervical dilatation increase (primiparous beef heifers [3]; relaxin twice): 634%
incidence of retained placenta beyond 24 h postpartum (primiparous beef heifers [4]; all relaxin-treated heifers (once or twice)): 0 of 31
Heifers calving within 48 h after treatment, % (primiparous beef heifers [4]; relaxin once (3,000 U)): 45%
Mean interval of days between first treatment and calving (primiparous beef heifers [4]; relaxin once (3,000 U)): 2.5 days
Day of calving (primiparous beef heifers [4]; relaxin once (3,000 U) into cervical os): 280.5 ± 0.8
Heifers calving within 48 h after treatment, No. (primiparous beef heifers [4]; relaxin once (3,000 U), 14 heifers): 6
calved earlier than PBS-gel vehicle-treated heifers, average (primiparous beef heifers [4]; relaxin twice): 3.3 days
Heifers calving within 48 h after treatment, % (primiparous beef heifers [4]; [9]): 88%
Mean interval of days between first treatment and calving (primiparous beef heifers [4]; [9]): 2.0 days
Day of calving (primiparous beef heifers [4]; relaxin twice (2 × 3,000 U, 12 h apart) into cervical os): 278.6 ± 1.2
Heifers calving within 48 h after treatment, No. (primiparous beef heifers [4]; relaxin twice (2 × 3,000 U, 12 h apart), 17 heifers): 15
heifers calving within 24 h after treatment (primiparous beef heifers [4]; relaxin-treated group vs PBS-gel vehicle, P<0.001): more heifers calving
duration of gestation (primiparous beef heifers [4]; relaxin-treated heifers vs PBS-gel vehicle controls, P<0.05): reduced
duration of pregnancy (cows; 3000 U/mg, four days before expected parturition): did not significantly reduce
cervical dilation (cows; cows, a few days before expected parturition): induce cervical dilation
duration of pregnancy (cows; heifers given relaxin intracervically on three consecutive days): Some shortening of pregnancy
relaxin potency [5]: 3000 Units/mg

Reference: patent publication US4686103A, “Method of managing cattle breeding herds” (Iowa State University Research Foundation, Inc., priority 1985, dated 1987)
